Like-named read-outs stand apart in the source and are kept apart here.
Tests used:
[1] = target: T1, sodium iodide symporter (NIS), iodide uptake in FRTL5 cells (Rattus norvegicus, UniProt Q63008); experiment: Inhibition of iodide uptake in FRTL5 cells, non radioactive arsenic/cerium assay; type: cell-based; settings: NaI 10 μM, 1 hour, 20°C, read-out: IC50 (μM), inhibitory activity against iodide uptake in FRTL5 cells
T1 construct: endogenous in cells; host or cells: FRTL5 (rat thyroid-derived cells)
T1 sequence (Q63008 1-618): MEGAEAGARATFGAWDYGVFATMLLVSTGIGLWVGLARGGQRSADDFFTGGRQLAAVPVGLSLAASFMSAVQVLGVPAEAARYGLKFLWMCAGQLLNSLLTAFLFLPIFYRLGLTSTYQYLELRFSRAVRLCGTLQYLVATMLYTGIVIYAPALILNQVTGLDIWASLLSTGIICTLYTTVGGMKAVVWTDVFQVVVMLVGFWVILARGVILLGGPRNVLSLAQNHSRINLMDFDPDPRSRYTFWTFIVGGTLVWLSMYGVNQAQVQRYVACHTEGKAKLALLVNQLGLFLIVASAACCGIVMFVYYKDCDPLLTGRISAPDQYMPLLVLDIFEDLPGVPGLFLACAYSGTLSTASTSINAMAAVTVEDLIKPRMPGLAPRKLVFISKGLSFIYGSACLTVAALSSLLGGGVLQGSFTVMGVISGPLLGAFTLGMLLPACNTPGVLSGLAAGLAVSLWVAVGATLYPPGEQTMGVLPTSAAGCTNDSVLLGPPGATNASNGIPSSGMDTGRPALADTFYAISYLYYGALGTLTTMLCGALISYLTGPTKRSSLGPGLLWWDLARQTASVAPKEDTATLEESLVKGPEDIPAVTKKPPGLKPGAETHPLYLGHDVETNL
Experimental: Some of the synthesized compounds were evaluated for their ability to inhibit iodide entrapment in FRTL5 cells. The IC50 values were measured in at least […] independent experiments.
The biological activity of each compound was determined in FRTL5 cells, using a non radioactive arsenic/cerium assay as described in F. Waltz et al., Anal. Biochem., 2012, 396, 91-95. Compound potency was expressed as IC50, the concentration of compound necessary to achieve 50% inhibition of iodide uptake. Briefly, to FRTL5 cells at 70-90% confluence was added compound (200 μM, 10 μM, 0.5 μM, 25 nM, 1.2 nM, 60 pM, […], and 0.15 pM final), followed by NaI (10 μM final). After 1 hour incubation at 20±1° C., supernatant was removed and the cells were immediately assayed for iodide content using the modified As/Ce Sandell-Kolthoff reaction. NaClO4 was tested in each microplate as assay controls. The IC50 values of all compounds were measured least thrice independently.
Stock solutions of tested compounds were prepared in DMSO (20 mM) and that of NaClO4 in water (20 mM). These stock solutions were stored at 4° C. for up to 2 months. Sample dilutions: the day of the assay, a daughter plate (clear flat-bottomed 96-well polystyrene microplates, Costar 9017) was prepared from 20 mM stock solutions. NaClO4 (column 2) and DHPM samples (columns 4 to 11) were diluted at 10× the final concentration in uptake buffer.
FRTL5 cells were cultured as described in F. S. Ambesi-Impiombato et al., Proc. Natl. Acad. Sci. USA, 1980, 77, 3455-3459. Briefly, FRTL5 cells were cultured in Coon's modified F12 medium supplemented with 5% heat-inactivated fetal bovine serum (Invitrogen), 2 mM L-glutamine, 100 U/mL penicillin, 0.1 mg/mL streptomycin, 10 μg/mL insulin, 10 nM hydrocortisone, 10 ng/mL Gly-His-Lys acetate, 1 mU/mL TSH, 5 μg/mL transferrin at 37° C. and 5% CO2. For iodide uptake assays, 200 μL of FRTL5 cells with density of 250,000 cells/mL were dispensed in each well of clear flat-bottomed 96-well polystyrene microplates (Costar 3628) using the Multidrop 384 (ThermoFisher Scientific), and further cultured until confluence reached 80-90% (3-4 days).
The culture medium of FRTL5 monolayer cells at 80-90% confluence was replaced by uptake buffer (20° C.) via continuous aspiration/dispense cycle (600 μL) using a 96-needle head plate washer PW 384 (Tecan). The 96-needle head was set to a vertical position such that 80 μL of fresh uptake buffer remained in each well at the end of the cycle. The samples (10 μL each) from the daughter plate were transferred all at once to the assay plate using the 96-tip head pipettor Liquidator 96 (Mettler Toledo). Immediately after, 10 μL of a NaI solution at 100 μM was added to each well of the assay plate using the Liquidator 96. The assay plate was left to stand in the dark at 20±1° C. for 60 min. The assay plate was then washed with cold (4° C.) uptake buffer using the PW 384 plate washer and residual supernatant was immediately discarded by inverting the assay plate on absorbent paper.
Sodium iodide standards (S1 to S7) and water (S0) were distributed in duplicate (100 μL each) in the first and last column of the assay plate. Water (100 μL) was added to the columns with the Multidrop 384. 100 μL of the ammonium cerium (IV) sulfate solution (10.5 mM) was distributed into the columns, followed by 100 μL of the sodium arsenite (III) solution (24 mM) using the Multidrop 384. The assay plate was left to stand at 20±1° C. for 30 min. The absorbance at 420 nm (Abs420) was immediately recorded on a SpectraMax Plus 384 (Molecular Devices). A calibration curve was prepared for each plate by plotting the logarithmic conversion of the means of Abs420 (n=2) vs iodide standard concentrations (S0 to S7). The iodide concentrations in the samples were determined after linear regression of the calibration curve.

[2] = Table 1, variations at R1, averaged from three or four independent experiments
[3] = Table 5, variations at Y, R1, R3, R4, R5, averaged from two to four independent experiments
[4] = Table 2, variations at R5, averaged from three or four independent experiments
[5] = Table 3, variations at R2, averaged from three or four independent experiments

| SMILES | IC50 [1, 2] [µM] | melting point [°C] | also measured |
| --- | --- | --- | --- |
| COc1ccc(COC(=O)C2=C(C)NC(=O)NC2c2ccoc2)cc1 (stereo not shown) [Compound 28, 4-Methoxybenzyl 4-(furan-3-yl)-6-methyl-2-oxo-1,2,3,4-tetrahydropyrimidine-5-carboxylate] | 0.02 | 157 to 159 |  |
| CC1=C(C(=O)OCc2ccc3c(c2)OCO3)C(c2ccco2)NC(=O)N1 (stereo not shown) [Compound 59, benzo[d][1,3]dioxol-5-ylmethyl 4-(furan-2-yl)-6-methyl-2-oxo-1,2,3,4-tetrahydropyrimidine-5-carboxylate] |  | 169 to 171 | IC50 [1, 3]: 0.004 µM |
| CC1=C(C(=O)OCc2ccc3c(c2)OCO3)C(c2ccoc2)NC(=O)N1 (stereo not shown) [Compound 62, Benzo[d][1,3]dioxol-5-ylmethyl 4-(furan-3-yl)-6-methyl-2-oxo-1,2,3,4-tetrahydropyrimidine-5-carboxylate] |  | 172 to 173 | IC50 [1, 3]: 0.037 µM |
| COc1ccc(COC(=O)C2=C(C)N(C)C(=O)NC2c2ccco2)cc1 (stereo not shown) [Compound 53, 4-Methoxybenzyl 4-(furan-2-yl)-1,6-dimethyl-2-oxo-1,2,3,4-tetrahydropyrimidine-5-carboxylate] |  | 112 to 113 | IC50 [1, 3]: 0.09 µM |
| COc1ccc(COC(=O)C2=C(C)NC(=O)NC2C2CC2)cc1 (stereo not shown) [Compound 26, 4-Methoxybenzyl 4-cyclopropyl-6-methyl-2-oxo-1,2,3,4-tetrahydropyrimidine-5-carboxylate] | 0.75 | 158 to 160 |  |
| COc1ccc(COC(=O)C2=C(C)NC(=O)NC2c2ccccc2F)cc1 (stereo not shown) [Compound 23, 4-Methoxybenzyl 4-(2-fluorophenyl)-6-methyl-2-oxo-1,2,3,4-tetrahydropyrimidine-5-carboxylate] | 0.065 | 181 to 183 |  |
| COc1ccc(COC(=O)C2=C(C)NC(=O)NC2c2ccco2)cc1 (stereo not shown) [Compound 27, 4-methoxybenzyl 4-(furan-2-yl)-6-methyl-2-oxo-1,2,3,4-tetrahydropyrimidine-5-carboxylate] | 0.0032 | 158 to 159 |  |
| CC1=C(C(=O)OCc2ccccc2C)C(c2ccccc2)NC(=O)N1 (stereo not shown) [Compound 36, 2-Methylbenzyl 6-methyl-2-oxo-4-phenyl-1,2,3,4-tetrahydropyrimidine-5-carboxylate] |  | 157 to 159 | IC50 [1, 4]: 0.25 µM |
| COc1ccc(COC(=O)C2=C(C)N(C)C(=O)N(C)C2c2ccco2)cc1OC (stereo not shown) [Compound 58, 3,4-Dimethoxybenzyl 4-(furan-2-yl)-1,3,6-trimethyl-2-oxo-1,2,3,4-tetrahydropyrimidine-5-carboxylate] |  | 122 to 124 | IC50 [1, 3]: 0.065 µM |
| COc1ccc(COC(=O)C2=C(Cc3ccccc3)NC(=O)NC2c2ccccc2)cc1 (stereo not shown) [Compound 45, 4-Methoxybenzyl 6-benzyl-2-oxo-4-phenyl-1,2,3,4-tetrahydropyrimidine-5-carboxylate] |  | 140 to 142 | IC50 [1, 5]: 0.25 µM |
| COc1ccc(COC(=O)C2=C(C)NC(=O)NC2c2ccc(C)o2)cc1 (stereo not shown) [Compound 29, 4-Methoxybenzyl 6-methyl-2-oxo-4-(5-methylfuran-2-yl)-1,2,3,4-tetrahydropyrimidine-5-carboxylate] | 0.09 | 157 to 159 |  |
| COc1ccc(COC(=O)C2=C(C)NC(=O)NC2c2cccc(F)c2)cc1 (stereo not shown) [Compound 24, 4-Methoxybenzyl 4-(3-fluorophenyl)-6-methyl-2-oxo-1,2,3,4-tetrahydropyrimidine-5-carboxylate] | 0.075 | 173 to 174 |  |
| COc1cccc(COC(=O)C2=C(C)N(C)C(=O)NC2c2ccco2)c1 (stereo not shown) [Compound 56, 3-Methoxybenzyl 4-(furan-2-yl)-1,6-dimethyl-2-oxo-1,2,3,4-tetrahydropyrimidine-5-carboxylate] |  | 155 to 156 | IC50 [1, 3]: 0.075 µM |
| CCC1=C(C(=O)OCc2ccc(OC)cc2)C(c2ccccc2)NC(=O)N1 (stereo not shown) [Compound 40, 4-Methoxybenzyl 6-ethyl-2-oxo-4-phenyl-1,2,3,4-tetrahydropyrimidine-5-carboxylate] |  | 62 to 65 | IC50 [1, 5]: 0.07 µM |
| COc1ccc(COC(=O)C2=C(CNC(=O)c3ccccc3)NC(=O)NC2c2ccccc2)cc1 (stereo not shown) [Compound 47, 4-Methoxybenzyl 2-oxo-6-(benzamidomethyl)-4-phenyl-1,2,3,4-tetrahydropyrimidine-5-carboxylate] |  | 213 to 216 | IC50 [1, 5]: 1.2 µM |
| CC1=C(C(=O)OCc2ccccc2)C(c2ccccc2)NC(=O)N1 (stereo not shown) [Compound 32, Benzyl 6-methyl-2-oxo-4-phenyl-1,2,3,4-tetrahydropyrimidine-5-carboxylate] |  | 174 to 175 | IC50 [1, 4]: 0.19 µM |
| COc1ccc(COC(=O)C2=C(C)NC(=S)NC2c2ccccc2)cc1 (stereo not shown) [Compound 52, 4-methoxybenzyl 6-methyl-4-phenyl-2-thioxo-1,2,3,4-tetrahydropyrimidine-5-carboxylate] |  | 174 to 175 | IC50 ([1]; Table 4, variations at X, R3, R4, averaged from three or four independent experiments): 0.095 µM |
| COc1ccc(COC(=O)C2=C(C)NC(=O)NC2c2cccc(Cl)c2)cc1 (stereo not shown) [Compound 22, 4-Methoxybenzyl 4-(3-chlorophenyl)-6-methyl-2-oxo-1,2,3,4-tetrahydropyrimidine-5-carboxylate] | 0.1 | 180 to 181 |  |
| CC1=C(C(=O)OCc2ccccc2Cl)C(c2ccccc2)NC(=O)N1 (stereo not shown) [Compound 33, 2-Chlorobenzyl 6-methyl-2-oxo-4-phenyl-1,2,3,4-tetrahydropyrimidine-5-carboxylate] |  | 193 to 195 | IC50 [1, 4]: 0.35 µM |
| CC1=C(C(=O)OCc2ccc(Cl)cc2)C(c2ccccc2)NC(=O)N1 (stereo not shown) [Compound 34, 4-Chlorobenzyl 6-methyl-2-oxo-4-phenyl-1,2,3,4-tetrahydropyrimidine-5-carboxylate] |  | 216 to 217 | IC50 [1, 4]: 0.3 µM |
